Source: patent US9346746B2, “R(+)-N-formyl-propargyl-aminoindan” (Teva Pharmaceutical Industries, Ltd., priority 2011, dated 2016)
Where two headings read alike, the source gives them in different places.

What was measured:
[1] = melt phase, Air
Method: Samples intended to degrade under an inert atmosphere were flushed with nitrogen for 5 minutes before closing with a stopper.
The samples were introduced into a pre-heated oven and held at a constant temperature of 78 and 90° C. for 24, 72 or 137 hrs. After completion of the treatment the samples were refrigerated and analyzed.

[2] = 1 mg/ml, air, Ethanol, 78 °C, 168 hrs
Method: The solutions were exposed to heating in oven under air atmosphere in amber glass vials closed with Teflon stoppers and covered with aluminum foil for protection from light. After completion of the treatment the samples were refrigerated at 2-8° C. and analyzed later using HPLC.

[3] = for R(+)-N-formyl-PAI, % of Rasagiline: 90° C., air, 1 mg/ml
Method: An additional series of degradation experiments was performed at 90° C. in order to achieve even higher degradation of Rasagiline in aqueous solutions.
For this series the treatment time was 1 and 2 weeks, and phosphate-citrate buffer (pH=2.6) and phosphate buffer (pH=8.0) were used.
The solutions were exposed to heat in an oven under an air atmosphere in amber glass vials closed with Teflon stoppers and covered with aluminum foil for protection from light.
The samples were introduced into an oven pre-heated to 90° C. and held at this temperature for 7 or 14 days. After completion of the treatment the samples were refrigerated at 2-8° C. and analyzed.

[4] = room temperature, initial peroxide 3%
Method: Then peroxide and water were added; complete dissolution of solid was achieved by shaking.
After holding at room temperature for 10 minutes to 20 hrs (oxidation time), the solutions were diluted with mobile phase and analyzed by HPLC.

[5] = RH=100%, room temperature, 7 days
[6] = in vivo; cited from earlier work

R(+)-N-formyl-PAI, % of Rasagiline ([1]; 78 deg. C., 24 hrs): 0.14 % of Rasagiline
R(+)-N-formyl-PAI, % of Rasagiline ([1]; 78 deg. C., 72 hrs): 0.10 % of Rasagiline
R(+)-N-formyl-PAI, % of Rasagiline ([1]; 90 deg. C., 24 hrs): 0.08 % of Rasagiline
R(+)-N-formyl-PAI, % of Rasagiline ([1]; 90 deg. C., 72 hrs): 0.07 % of Rasagiline
R(+)-N-formyl-PAI, % of Rasagiline ([1]; 90 deg. C., 137 hrs): 0.07 % of Rasagiline
R(+)-N-formyl-PAI, % of Rasagiline [2]: <0.04 % of Rasagiline
R(+)-N-formyl-PAI, % of Rasagiline ([3]; Acetate buffer pH = 4.1, 1 week): 0.05 % of Rasagiline
R(+)-N-formyl-PAI, % of Rasagiline ([3]; Phosphate buffer pH = 6.0, 1 week): 0.07 % of Rasagiline
R(+)-N-formyl-PAI, % of Rasagiline ([3]; Phosphate buffer pH = 6.0, 2 weeks): 0.16 % of Rasagiline
R(+)-N-formyl-PAI, % of Rasagiline ([3]; Phosphate buffer pH = 8.0, 1 week): 0.22 % of Rasagiline
R(+)-N-formyl-PAI, % of Rasagiline ([3]; Phosphate buffer pH = 8.0, 2 weeks): 0.19 % of Rasagiline
R(+)-N-formyl-PAI, % of Rasagiline ([3]; Phosphate-citrate buffer 3.6, 1 week): 0.13 % of Rasagiline
R(+)-N-formyl-PAI, % of Rasagiline ([3]; Phosphate-citrate buffer 3.6, 2 weeks): 0.11 % of Rasagiline
R(+)-N-formyl-PAI, % of Rasagiline ([3]; Phosphate-citrate buffer pH = 2.6, 1 week): 0.17 % of Rasagiline
R(+)-N-formyl-PAI, % of Rasagiline ([3]; Phosphate-citrate buffer pH = 2.6, 2 weeks): 0.26 % of Rasagiline
R(+)-N-formyl-PAI found in the solutions ([3]; aqueous solutions at 90° C., summary statement): above 0.1 % area of Rasagiline
R(+)-N-formyl-PAI, % of Rasagiline ([4]; oxidation time 5:00 hr:min): 0.17 % of Rasagiline
R(+)-N-formyl-PAI, % of Rasagiline ([4]; oxidation time 20:00 hr:min): 0.23 % of Rasagiline
R(+)-N-formyl-PAI after humidity stress [5]: not detected
Compound: C#CCN[C@@H]1CCc2ccccc21 [Rasagiline base, R(+)-N-propargyl-1-aminoindan]
absolute bioavailability [6]: about 36%
